Laboratory results as given in US9814758B2, “Inhibitors of apoptosis and uses thereof” (CENTRE NATIONAL DE LA RECHERCHE SCIENTIFIQUE-CNRS, priority 2010, dated 2017).
Non-standard residues stand in square brackets, D forms with d. Residues, ends and D or L forms follow the SMILES beside them. No end group written: not given here. Ahx = NCCCCCC(=O)O

Legend:
[1] = Stability in 20% mouse serum (reverse-phase HPLC); format: in vitro ADME; conditions: 37° C.; for remaining at 2 h: 2 h incubation, read-out: peptide still intact; for peptide degradation: after 24 hours
Description: FIG. 3: Evaluation of Tat-DAXXp and Pip2b-DAXXp protease ability. (A) Stability measurements of Tat-DAXXp and Pip2b-DAXXp conjugates in fetal bovine serum (FBS, BioWest) and (B) freshly prepared mouse serum (MS). Peptides were incubated with 20% serum at 37° C. for 0 h, 1 h, 2 h, 4 h, 8 h, 24 h, and 48 h, and 50 μl of the incubation mixture was precipitated in 100 μl 10% dichloroacetic acid (DCA) in H2O/CH3CN (50/50). The samples were mixed and kept at −20° C. The precipitated serum proteins were separated by centrifugation (14,000 rpm, 10 minutes) and the supernatant was analyzed by reverse-phase HPLC (measurement of the peak area in mV*sec). n≧2 for each condition.

H9c2 cells = test: STS-induced DNA fragmentation (Cell Death detection ELISA PLUS) in H9c2 cells; format: cell-based, rat; conditions: rat H9c2 (model for cardiac cells); FIG. 5C
Description: FIG. 5: In vitro evaluation of the anti-apoptotic activity of CPPs and CPP-conjugates. Workflow and quantitation of DNA fragmentation in (A) C2C12 cells, (B) primary cardiomyocytes, (C) H9c2 cells and (D) NG108-15 cells. Data were normalized to 100% STS. Data shown are the means±SEM, with n≧5. Cells were seeded in 24-well plates and grown overnight. The next day, the cells were incubated with STS alone or with STS+1 μM peptide (in OPTI-MEM) (OPTI-MEM® is a modification of Eagle's Minimum Essential Media, buffered with HEPES and sodium bicarbonate, and supplemented with hypoxanthine, thymidine, sodium pyruvate, L-glutamine, trace elements, and growth factors) (STS concentration and incubation time for each cells are given in the figure). Thereafter, solutions were removed, replaced by complete medium and further incubated for 40 h. Following the regeneration phase, the cells were lyzed and DNA fragmentation was detected according to manufacturer's instructions (Cell Death detection ELISA^PLUS kit—Roche Diagnostics). […]
Thereafter, the capacity of these peptides to inhibit apoptosis induced by staurosporine was evaluated. Apoptosis was determined using the Cell Death detection ELISA^PLUS kit (Roche) measuring the DNA fragmentation.
The anti-apoptotic effects of the peptides were also analyzed in murine NG118-15 (model for neuronal cells) (FIG. 5D), in murine C2C12 (model for muscle cells) (FIG. 5A) and in rat H9c2 (model for cardiac cells) (FIG. 5C). The highest reduction in DNA fragmentation were observed using Bpep-DAXXp in NG118-15 (66% reduction) using Tat-DAXXp in C2C12 (24% reduction) and Pip2b-DAXXp in H9c2 (31% reduction).

[2] = test system: C57Bl6 mice, myocardial ischemia-reperfusion; test: Myocardial ischemia-reperfusion IR60' (40 min ischemia, 60 min reperfusion); format: in vivo, mouse
Description: FIG. 11: In vivo experimental protocol. C57Bl6 mice underwent a surgical protocol of myocardial ischemia-reperfusion (IR). The black box represents the period of ischemia to which the mice were submitted. Infarct size or cell death measurements were performed at the end of surgery for each protocol (indicated by ↑). IR60′: 40 minutes of Ischemia, 60 minutes of Reperfusion. IR24h: 40 minutes Ischemia and 24 hours Reperfusion.
FIG. 12: Cardioprotective effects of Tat-DAXXp (1 mg/kg—IV) in mice subjected to IR60′. Infarct size (in % of area at risk) and internucleosomal DNA fragmentation determined by ELISA were quantified in mice subjected to IR60′ and treated with Tat, Tat-DAXXp or Tat-scrDAXXp (1 mg/kg) as well as with DAXXp (10 mg/kg) (intravenous injection (IV) 5 minutes before reperfusion). Means±SEM were plotted for (A): Area at risk/LV mass (left ventricle), (B): Infarct size (in % of area at risk) and (C): (I/NI ratio) corresponding to the ratio of soluble nucleosome in the ischemic portion versus the non-ischemic portion of LV tissues. Statistical analysis was performed using One-way ANOVA with Neuman-Keuls post test for multiple comparisons (GraphPad Prism software). P<0.05, P<0.01 and P<0.001 versus Tat-DAXXp were noted *, **, and *** respectively. P=ns (not significant) for P>0.05.
FIG. 13: Dose response for Tat-DAXXp and DAXXp in mice subjected to IR60′. Infarct size (in % of area at risk) and internucleosomal DNA fragmentation determined by ELISA were quantified in mice subjected to IR60′ and treated with Tat (1 mg/kg), Tat-DAXXp (0.1, 1 and 10 mg/kg) or DAXXp (0.1, 1 and 10 mg/kg) injected intravenously 5 minutes before reperfusion. Means±SEM were plotted for (A): Area at risk/LV mass (left ventricle), (B): Infarct size (in % of area at risk) and (C): (I/NI ratio) corresponding to the ratio of soluble nucleosome in the ischemic versus the non-ischemic portion of LV tissues.
In a second step, the cardioprotective effects of DAXXp were evaluated in an in vivo model of myocardial ischemia-reperfusion. Acute myocardial ischemia and reperfusion were performed in C57Bl6 mice subjected to a surgical model of reversible coronary occlusion. Male mice (22-28 g) were anesthetized and ventilated via a tracheal intubation using a Harvard rodent respirator. Body temperature was maintained between 36.8° C. and 37.0° C. via a thermo-regulated surgical table. The chest was opened by left lateral thoracotomy and a reversible coronary artery snare occluder was placed around the left coronary artery. Mice were randomly allocated to two different surgical protocols of myocardial ischemia-reperfusion (FIG. 11). At the end of reperfusion, the artery was re-occluded and phtalocyanine blue dye was injected into the left ventricle cavity and allowed to perfuse the non-ischemic portions of the myocardium. To determine the effect of DAXXp on myocardial infarct size, peptides were administered intravenously (caudal vein) 5 minutes before reperfusion during the surgical protocol of ischemia-reperfusion. The control groups were treated with Tat or Pip2b peptide (for CPP alone). The dose of 1 mg/kg was chosen (μmolar range) and dose responses for 0.1 and 10 mg/kg were also tested.
At the end of reperfusion, mice were re-anaesthetized, the coronary ligature definitively tightened, the blue dye injected and the harvested left ventricles were dedicated to infarct size (TTC method, Schwartz et al, J Thromb. Thromb., 2000; 10: 181-187) or DNA fragmentation measurements (Cell death detection ELISA^PLUS kit, Roche Diagnostics) in order to investigate the cardioprotective effects against ischemia-reperfusion injuries.

Row | Compound | remaining at 2 h [1] [%] | peptide degradation [1] | reduction in DNA fragmentation (H9c2 cells) [%] | cardioprotection (infarct size, DNA fragmentation) ([2]; IR60', data not shown) | specific DNA fragmentation in left ventricles versus Tat-injected mice ([2]; 1 mg/kg IV, IR60') | decrease of infarct size versus Tat peptide alone ([2]; 1 mg/kg intravenously 5 min before reperfusion, after 1 hour-reperfusion, p<0.01) [%] | dose of maximal effect ([2]; dose response 0.1, 1 and 10 mg/kg IV, FIG. 13) [mg/kg] | decrease of infarct size ([2]; 10 mg/kg injected alone (without CPP))
1 | CC[C@H](C)[C@H](NC(=O)[C@H](Cc1c[nH]cn1)NC(=O)[C@@H](NC(=O)[C@H](CCCNC(=N)N)NC(=O)CCCCCNC(=O)[C@H](CCCNC(=N)N)NC(=O)[C@H](CCCNC(=N)N)NC(=O)CCCCCNC(=O)[C@H](CCCNC(=N)N)NC(=O)[C@H](CCCNC(=N)N)NC(=O)CCCCCNC(=O)[C@@H](N)CCCNC(=N)N)[C@@H](C)CC)C(=O)N[C@@H](CC(C)C)C(=O)N[C@@H](Cc1ccccc1)C(=O)N[C@@H](CCC(N)=O)C(=O)N[C@@H](CC(N)=O)C(=O)N[C@H](CCCNC(=N)N)C(=O)N[C@@H](CCCNC(=N)N)C(=O)N[C@@H](CCSC)C(=O)N[C@@H](CCCCN)C(=O)N[C@@H](Cc1c[nH]c2ccccc12)C(=O)N[C@@H](Cc1c[nH]cn1)C(=O)N[C@@H](CCCCN)C(=O)N[C@@H](CCCCN)C(=O)N[C@@H](CCCCN)C(=O)N[C@@H](CO)C(=O)N[C@@H](CCCNC(=N)N)C(=O)N[C@@H](CCCCN)C(=O)N[C@@H](CCC(=O)O)C(=O)N[C@@H](CCCCN)C(=O)N[C@@H](CCCCN)C(=O)N[C@@H](CCC(N)=O)C(=O)N[C@H](C(=O)NCC(=O)N[C@@H](CO)C(=O)NCC(=O)N1CCC[C@H]1C(=O)N[C@@H](CC(C)C)C(=O)NCC(N)=O)[C@@H](C)O [Pip2b-DAXXp, (RXR)3-IHILFQNrRMKWHK-KKSRKEKKQTGSGPLG-NH2] (H-R[Ahx]RR[Ahx]RR[Ahx]RIHILFQN[dR]RMKWHKKKSRKEKKQTGSGPLG-NH2; N-terminus assumed) | > 70 | all the peptide are degraded | 31 | not observed | – | – | – | –
2 | GRKKRRQRRRPPQKKSRKEKKQTGSGPLG-NH2 [Tat-DAXXp, GRKKRRQRRRPPQ-KKSRKEKKQTGSGPLG-NH2] | > 70 | all the peptide are degraded | – | – | drastic decrease | 53.4 | 1 | –
3 | KKSRKEKKQTGSGPLG-NH2 [DAXXp, KKSRKEKKQTGSGPLG-NH2] | – | – | – | – | – | – | – | to the same extent than Tat-DAXXp
